According to patent US12662489B2 (Sitryx Therapeutics Limited, priority 2023, dated 2026):

Legend:
[1] = target: T1, MTHFD1 recombinant human enzyme (Homo sapiens, UniProt P11586); assay: MTHFD1 inhibition assay (NAD(P)H-Glo luminescence); settings: MTHFD1 IC50, recombinant human enzyme 200 nM, NADP, band
T1 sequence (P11586 2-291 limits assumed): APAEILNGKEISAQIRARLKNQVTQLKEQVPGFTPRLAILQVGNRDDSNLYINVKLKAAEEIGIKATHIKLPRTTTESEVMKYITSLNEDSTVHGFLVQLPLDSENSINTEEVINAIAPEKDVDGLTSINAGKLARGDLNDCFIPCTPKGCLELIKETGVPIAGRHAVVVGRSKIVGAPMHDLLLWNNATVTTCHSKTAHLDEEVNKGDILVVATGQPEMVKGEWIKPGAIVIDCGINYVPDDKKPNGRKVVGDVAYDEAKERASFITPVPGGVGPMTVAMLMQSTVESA

[2] = target: T2, MTHFD2 recombinant human enzyme (Homo sapiens, UniProt P13995); assay: MTHFD2 inhibition assay (NAD(P)H-Glo luminescence); settings: for MTHFD1/MTHFD2 IC50 ratio: selectivity of MTHFD2 inhibition over MTHFD1, band
T2 sequence (P13995 36-350): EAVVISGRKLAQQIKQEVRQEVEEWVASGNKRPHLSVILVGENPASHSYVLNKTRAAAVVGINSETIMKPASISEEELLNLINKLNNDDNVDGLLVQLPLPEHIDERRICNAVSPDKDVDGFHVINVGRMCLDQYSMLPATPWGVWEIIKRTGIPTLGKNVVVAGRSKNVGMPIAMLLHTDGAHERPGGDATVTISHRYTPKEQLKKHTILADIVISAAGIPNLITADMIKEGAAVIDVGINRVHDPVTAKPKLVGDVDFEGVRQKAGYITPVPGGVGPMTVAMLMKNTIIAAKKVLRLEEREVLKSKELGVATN

human CD4+ T cells = assay: Human CD4+ T-cell proliferation assay (CFSE, CD3/28 beads); settings: read-out: Proliferation IC50
Method: Cells were incubated at room temperature for 8 minutes in a rotator in the dark. 13 mL cRPMI was added to each tube and cells were centrifuged at 500×g for 4 minutes at room temperature before pellets were resuspended in 10 mL cRPMI. Cells were counted using the Auto2000 Cellometer and AO/PI viability stain and concentration adjusted to 0.6×10^6 cells/mL in cRPMI. […] Control wells were included for flow cytometry and edge wells were filled with 200 μL 1×dPBS. Cells were incubated at 37° C., 5% CO2 for 2 days before compound treatment. […] Cells were incubated at 37° C., 5% CO2 for a further 2 days prior to flow staining and supernatant harvest.
On the final day plates were centrifuged at 500×g for 4 minutes at room temperature. 125 μL of supernatants were transferred to a V bottom 96 well polystyrene plate and stored at −80° C. Plates were gently vortexed to disrupt the cell pellets before 125 μL 1×PBS was added to each well. Plates were centrifuged at 500×g for 4 minutes at room temperature and supernatants removed from the plates by aspirating. Plates were gently vortexed and 30 μL of live/dead stain (Invitrogen, L34975) in 1×dPBS was added and incubated for 15 minutes in the dark at 4° C. […] 100 μL of flow cytometry buffer was added and plates were centrifuged at 500×g for 4 minutes before supernatants were aspirated from the plates. Wells were resuspended in 200 μL flow cytometry buffer and plates stored at 4° C. before being run on the flow cytometer.
Data was analysed using FlowJo and the compensation matrix applied to all samples. The gates were set using unstained and unstimulated samples.

Structure (SMILES)	IC50 [1] [nM]	IC50 [2] [nM]	MTHFD1/MTHFD2 IC50 ratio [2]	IC50 (human CD4+ T cells) [nM]
COC[C@H]1CN(c2cc(C)c3c4c(c(=O)oc3c2C)CN(C(=O)c2cc(OC3CCCC3)c(C(=O)NS(=O)(=O)N3CCCC3)c(C(F)(F)F)c2)CC4)CCN1C [Example 129, (R)-2-(cyclopentyloxy)-4-(8-(3-(methoxymethyl)-4-methylpiperazin-1-yl)-7,10-dimethyl-5-oxo-1,3,4,5-tetrahydro-2H-chromeno[3,4-c]pyridine-3-carbonyl)-N-(pyrrolidin-1-ylsulfonyl)-6-(trifluoromethyl)benzamide]	1000 to 5000	10 to 100	J (>30)	100 to 1000
COC[C@H]1CN(c2cc(C)c3c4c(c(=O)oc3c2C)CN(C(=O)c2cc(OC3CCC3)c(C(=O)NS(=O)(=O)C3(C)CC3)c(C(F)(F)F)c2)CC4)CCN1C [Example 130, (R)-2-cyclobutoxy-4-(8-(3-(methoxymethyl)-4-methylpiperazin-1-yl)-7,10-dimethyl-5-oxo-1,3,4,5-tetrahydro-2H-chromeno[3,4-c]pyridine-3-carbonyl)-N-((1-methylcyclopropyl)sulfonyl)-6-(trifluoromethyl)benzamide]	1000 to 5000	10 to 100	J (>30)	1000 to 5000
COC[C@H]1CN(c2cc(C)c3c4c(c(=O)oc3c2C)CN(C(=O)c2ccc(C(=O)NS(=O)(=O)N3CCCC3)c(OC)c2F)CC4)CCN1C [Example 135, (R)-3-fluoro-2-methoxy-4-(8-(3-(methoxymethyl)-4-methylpiperazin-1-yl)-7,10-dimethyl-5-oxo-1,3,4,5-tetrahydro-2H-chromeno[3,4-c]pyridine-3-carbonyl)-N-(pyrrolidin-1-ylsulfonyl)benzamide]	10 to 100	1 to 10	G (^ 3 to 9.0)	10 to 30
COC[C@H]1CN(c2cc(C)c3c4c(c(=O)oc3c2C)CN(C(=O)c2ccc(C(=O)NS(=O)(=O)C3(C)CC3)c(N(C)C)c2F)CC4)CCN1C [Example 136, (R)-2-(dimethylamino)-3-fluoro-4-(8-(3-(methoxymethyl)-4-methylpiperazin-1-yl)-7,10-dimethyl-5-oxo-1,3,4,5-tetrahydro-2H-chromeno[3,4-c]pyridine-3-carbonyl)-N-((1-methylcyclopropyl)sulfonyl)benzamide]	100 to 1000	10 to 100	H (>9.0 to 30)	30 to 100
COC[C@H]1CN(c2cc(C)c3c4c(c(=O)oc3c2C)CN(C(=O)c2ccc(C(=O)NS(=O)(=O)N3CCCC3)c(OC(C)C)c2F)CC4)CCN1C [Example 149, (R)-3-fluoro-2-isopropoxy-4-(8-(3-(methoxymethyl)-4-methylpiperazin-1-yl)-7,10-dimethyl-5-oxo-1,3,4,5-tetrahydro-2H-chromeno[3,4-c]pyridine-3-carbonyl)-N-(pyrrolidin-1-ylsulfonyl)benzamide]	10 to 100	1 to 10	F (<3)	1 to 10
COC[C@H]1CN(c2cc(C)c3c4c(c(=O)oc3c2C)CN(C(=O)c2cc(N(C)C)c(C(=O)NS(=O)(=O)C3(C)CC3)cc2Cl)CC4)CCN1C [Example 151, (R)-5-chloro-2-(dimethylamino)-4-(8-(3-(methoxymethyl)-4-methylpiperazin-1-yl)-7,10-dimethyl-5-oxo-1,3,4,5-tetrahydro-2H-chromeno[3,4-c]pyridine-3-carbonyl)-N-((1-methylcyclopropyl)sulfonyl)benzamide]	1000 to 5000	10 to 100	J (>30)	100 to 1000
COC[C@H]1CN(c2cc(C)c3c4c(c(=O)oc3c2C)CN(C(=O)c2ccc(C(=O)NS(=O)(=O)N3CCC5(CC3)CC5)c(OC)c2F)CC4)CCN1C [Example 155, (R)-N-((6-azaspiro[2.5]octan-6-yl)sulfonyl)-3-fluoro-2-methoxy-4-(8-(3-(methoxymethyl)-4-methylpiperazin-1-yl)-7,10-dimethyl-5-oxo-1,3,4,5-tetrahydro-2H-chromeno[3,4-c]pyridine-3-carbonyl)benzamide]	100 to 1000	10 to 100	–	10 to 30
COC[C@H]1CN(c2cc(C)c3c4c(c(=O)oc3c2C)CN(C(=O)c2ccc(C(=O)NS(=O)(=O)N3C5CCC3CC5)c(OC)c2F)CC4)CCN1C [Example 157, (R)-N-((7-azabicyclo[2.2.1]heptan-7-yl)sulfonyl)-3-fluoro-2-methoxy-4-(8-(3-(methoxymethyl)-4-methylpiperazin-1-yl)-7,10-dimethyl-5-oxo-1,3,4,5-tetrahydro-2H-chromeno[3,4-c]pyridine-3-carbonyl)benzamide]	100 to 1000	10 to 100	H (>9.0 to 30)	30 to 100
COC[C@H]1CN(c2cc(C)c3c4c(c(=O)oc3c2C)CN(C(=O)c2ccc(C(=O)NS(=O)(=O)N3CCCC3)c(OC(F)(F)F)c2F)CC4)CCN1C [Example 169, (R)-3-fluoro-4-(8-(3-(methoxymethyl)-4-methylpiperazin-1-yl)-7,10-dimethyl-5-oxo-1,3,4,5-tetrahydro-2H-chromeno[3,4-c]pyridine-3-carbonyl)-N-(pyrrolidin-1-ylsulfonyl)-2-(trifluoromethoxy)benzamide]	100 to 1000	10 to 100	H (>9.0 to 30)	100 to 1000
COC[C@H]1CN(c2cc(C)c3c4c(c(=O)oc3c2C)CN(C(=O)c2ccc(C(=O)NS(=O)(=O)N3CCCC3)c(OC(F)F)c2F)CC4)CCN1C [Example 171, (R)-2-(difluoromethoxy)-3-fluoro-4-(8-(3-(methoxymethyl)-4-methylpiperazin-1-yl)-7,10-dimethyl-5-oxo-1,3,4,5-tetrahydro-2H-chromeno[3,4-c]pyridine-3-carbonyl)-N-(pyrrolidin-1-ylsulfonyl)benzamide]	100 to 1000	10 to 100	G (^ 3 to 9.0)	100 to 1000
COC[C@H]1CN(c2cc(C)c3c4c(c(=O)oc3c2C)CN(C(=O)c2ccc(C(=O)NS(=O)(=O)N3CCCC3)c(Cl)c2F)CC4)CCN1C [Example 178, (R)-2-chloro-3-fluoro-4-(8-(3-(methoxymethyl)-4-methylpiperazin-1-yl)-7,10-dimethyl-5-oxo-1,3,4,5-tetrahydro-2H-chromeno[3,4-c]pyridine-3-carbonyl)-N-(pyrrolidin-1-ylsulfonyl)benzamide]	100 to 1000	10 to 100	J (>30)	100 to 1000
COC[C@H]1CN(c2ccc3c4c(c(=O)oc3c2C)CN(C(=O)c2cc(N(C)C)c(C(=O)NS(=O)(=O)N3CC5CC5C3)cc2F)CC4)CCN1C (stereo partly drawn) [Example 181, N-((3-azabicyclo[3.1.0]hexan-3-yl)sulfonyl)-2-(dimethylamino)-5-fluoro-4-(8-((R)-3-(methoxymethyl)-4-methylpiperazin-1-yl)-7-methyl-5-oxo-1,3,4,5-tetrahydro-2H-chromeno[3,4-c]pyridine-3-carbonyl)benzamide]	100 to 1000	10 to 100	H (>9.0 to 30)	10 to 30
